Results reported in patent US20020039567A1, “Methods of treating bone or cartilage conditions by the administration of creatine” (priority 1998, published 2002).

What was measured:
[1] = tested on: osteoblasts (monolayer culture); experiment: Alkaline phosphatase activity (histochemically), monolayer osteoblast cell culture; assay type: cell-based, rat; conditions: 3 weeks
Method: This isolation technique is based on the ability of osteoblasts to migrate from bone onto a substratum. Parietal and frontal calvariae (4 per animal) were aseptically explanted from 6 day-old IcoIbm rats. The calvariae were placed in Tyrode's balanced salt solution, calcium and magnesium free (TESS). The periosteum was enzymatically removed with 0.05% trypsin and 0.02% collagenase A (0.76 U/mg) dissolved in TBSS (40 calvaria/20 ml). The calvariae were shaken for 70 minutes in a waterbath at 37° C. They were washed with TESS and then transferred to 60 mm culture dishes (40 calvariae/dish) containing 5 ml of 0.02% collagenase A (0.76 U/mg) in culture medium BGJb Fitton-Jackson modification and placed in the incubator for 4 hours. The calvariae were then washed with culture medium B supplemented with 10% foetal calf serum (FCS). The calvariae were transferred into 60 mm culture dishes (4 frontal and 4 parietal/dish). The growth medium supplemented with 10% FCS and 50 μg/ml ascorbate was completely changed every 48 hours. The culture was kept for 3 weeks. After 3 weeks the migrated cells were harvested. The dish was washed with TESS, and 5 ml of TESS containing 0.05% trypsin and 0.02% collagenase A (0.76 U/mg) was added. […] The viability of the resuspended cells was examined by the dye exclusion of 0.4% trypan blue, and the cells were counted in a haeinocytometer. […]

[2] = tested on: osteoblasts (micromass culture); experiment: Cell viability (neutral red uptake), micromass osteoblast cell culture; assay type: cell-based, rat; conditions: 20 mM creatine; 3 weeks; vs control (p<0.005) and 10 mM creatine (p<0.003)
Method: This isolation technique is based on the ability of osteoblasts to migrate from bone onto a substratum. Parietal and frontal calvariae (4 per animal) were aseptically explanted from 6 day-old IcoIbm rats. The calvariae were placed in Tyrode's balanced salt solution, calcium and magnesium free (TESS). The periosteum was enzymatically removed with 0.05% trypsin and 0.02% collagenase A (0.76 U/mg) dissolved in TBSS (40 calvaria/20 ml). The calvariae were shaken for 70 minutes in a waterbath at 37° C. They were washed with TESS and then transferred to 60 mm culture dishes (40 calvariae/dish) containing 5 ml of 0.02% collagenase A (0.76 U/mg) in culture medium BGJb Fitton-Jackson modification and placed in the incubator for 4 hours. The calvariae were then washed with culture medium B supplemented with 10% foetal calf serum (FCS). The calvariae were transferred into 60 mm culture dishes (4 frontal and 4 parietal/dish). The growth medium supplemented with 10% FCS and 50 μg/ml ascorbate was completely changed every 48 hours. The culture was kept for 3 weeks. […] The viability of the resuspended cells was examined by the dye exclusion of 0.4% trypan blue, and the cells were counted in a haeinocytometer. […] The absorbance of the supernatant (3 aliquots/dish) was read at 540 nm versus extraction buffer. […] If the absorbance was higher than 1, the samples were diluted with extraction buffer.

Row | Structure (SMILES) | cell density around the nodules ([1]; GPA groups) | staining pattern for the ALP activity ([1]; higher magnification, compared with control and creatine groups) | NR uptake [2]
1 | N=C(N)NCCC(=O)O [GPA, beta-guanidinopropionic acid] | lower than in the control and the creatine groups | different staining pattern | 
2 | CN(CC(=O)O)C(=N)N [creatine] |  |  | significantly lower NR uptake
